Source: the kinase profiling compilation of Christmann-Franck et al. (2016)

Columns and labels:
Details in all cases: compound 10.0 µM
EPHA1 (human) = EPHA1 (human) (UniProt P21709)
FYN (human) = FYN (human) (UniProt P06241)
MAP3K10 (human) = MAP3K10 (human) (UniProt Q02779)
DAPK2 (human) = DAPK2 (human) (UniProt Q9UIK4)
PTK2 (human) = PTK2 (human) (UniProt Q05397)
NEK4 (human) = NEK4 (human) (UniProt P51957)
WEE1 (human) = WEE1 (human) (UniProt P30291)
DYRK2 (human) = DYRK2 (human) (UniProt Q92630)
DYRK1B (human) = DYRK1B (human) (UniProt Q9Y463)
SGK1 (human) = SGK1 (human) (UniProt O00141)
ULK1 (human) = ULK1 (human) (UniProt O75385)
PHKG2 (human) = PHKG2 (human) (UniProt P15735)
NEK6 (human) = NEK6 (human) (UniProt Q9HC98)
ERBB4 (human) = ERBB4 (human) (UniProt Q15303)
PAK3 (human) = PAK3 (human) (UniProt O75914)
BLK (human) = BLK (human) (UniProt P51451)
TEC (human) = TEC (human) (UniProt P42680)
LTK (human) = LTK (human) (UniProt P29376)
CDK1 CCNA2 (human) = CDK1 CCNA2 (human) (UniProt P20248+P06493)
NUAK2 (human) = NUAK2 (human) (UniProt Q9H093)
RET (human) = RET (human) (UniProt P07949)
PRKCI (human) = PRKCI (human) (UniProt P41743)
MELK (human) = MELK (human) (UniProt Q14680)
RPS6KA6 KD1 KD2 (human) = RPS6KA6 KD1 KD2 (human) (UniProt Q9UK32)
CDK5 CDK5R1 p35 (human) = CDK5 CDK5R1 p35 (human) (UniProt Q00535+Q15078)
DSTYK (human) = DSTYK (human) (UniProt Q6XUX3)
EPHB2 (human) = EPHB2 (human) (UniProt P29323)
JAK3 JH1 JH2 (human) = JAK3 JH1 JH2 (human) (UniProt P52333)
SLK (human) = SLK (human) (UniProt Q9H2G2)
BTK (human) = BTK (human) (UniProt Q06187)
MUSK (human) = MUSK (human) (UniProt O15146)
MAP3K9 (human) = MAP3K9 (human) (UniProt P80192)
TGFBR2 (human) = TGFBR2 (human) (UniProt P37173)
EPHA7 (human) = EPHA7 (human) (UniProt Q15375)

Chain of TGFBR2 (human) (P37173 whole entry, looked up): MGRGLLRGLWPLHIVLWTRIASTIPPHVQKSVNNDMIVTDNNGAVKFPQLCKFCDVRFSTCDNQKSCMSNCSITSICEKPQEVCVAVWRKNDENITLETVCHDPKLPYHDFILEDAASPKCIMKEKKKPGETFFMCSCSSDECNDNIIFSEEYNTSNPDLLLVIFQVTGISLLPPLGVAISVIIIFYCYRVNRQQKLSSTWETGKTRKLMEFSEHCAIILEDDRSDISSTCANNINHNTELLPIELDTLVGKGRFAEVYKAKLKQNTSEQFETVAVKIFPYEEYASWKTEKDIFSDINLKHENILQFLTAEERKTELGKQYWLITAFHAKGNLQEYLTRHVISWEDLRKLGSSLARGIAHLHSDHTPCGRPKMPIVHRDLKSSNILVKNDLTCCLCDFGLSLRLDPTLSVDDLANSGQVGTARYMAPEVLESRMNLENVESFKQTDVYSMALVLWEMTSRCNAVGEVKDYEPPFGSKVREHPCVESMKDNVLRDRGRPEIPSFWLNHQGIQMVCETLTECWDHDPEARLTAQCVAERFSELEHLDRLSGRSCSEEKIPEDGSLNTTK
Chain of ERBB4 (human) (Q15303 whole entry, looked up): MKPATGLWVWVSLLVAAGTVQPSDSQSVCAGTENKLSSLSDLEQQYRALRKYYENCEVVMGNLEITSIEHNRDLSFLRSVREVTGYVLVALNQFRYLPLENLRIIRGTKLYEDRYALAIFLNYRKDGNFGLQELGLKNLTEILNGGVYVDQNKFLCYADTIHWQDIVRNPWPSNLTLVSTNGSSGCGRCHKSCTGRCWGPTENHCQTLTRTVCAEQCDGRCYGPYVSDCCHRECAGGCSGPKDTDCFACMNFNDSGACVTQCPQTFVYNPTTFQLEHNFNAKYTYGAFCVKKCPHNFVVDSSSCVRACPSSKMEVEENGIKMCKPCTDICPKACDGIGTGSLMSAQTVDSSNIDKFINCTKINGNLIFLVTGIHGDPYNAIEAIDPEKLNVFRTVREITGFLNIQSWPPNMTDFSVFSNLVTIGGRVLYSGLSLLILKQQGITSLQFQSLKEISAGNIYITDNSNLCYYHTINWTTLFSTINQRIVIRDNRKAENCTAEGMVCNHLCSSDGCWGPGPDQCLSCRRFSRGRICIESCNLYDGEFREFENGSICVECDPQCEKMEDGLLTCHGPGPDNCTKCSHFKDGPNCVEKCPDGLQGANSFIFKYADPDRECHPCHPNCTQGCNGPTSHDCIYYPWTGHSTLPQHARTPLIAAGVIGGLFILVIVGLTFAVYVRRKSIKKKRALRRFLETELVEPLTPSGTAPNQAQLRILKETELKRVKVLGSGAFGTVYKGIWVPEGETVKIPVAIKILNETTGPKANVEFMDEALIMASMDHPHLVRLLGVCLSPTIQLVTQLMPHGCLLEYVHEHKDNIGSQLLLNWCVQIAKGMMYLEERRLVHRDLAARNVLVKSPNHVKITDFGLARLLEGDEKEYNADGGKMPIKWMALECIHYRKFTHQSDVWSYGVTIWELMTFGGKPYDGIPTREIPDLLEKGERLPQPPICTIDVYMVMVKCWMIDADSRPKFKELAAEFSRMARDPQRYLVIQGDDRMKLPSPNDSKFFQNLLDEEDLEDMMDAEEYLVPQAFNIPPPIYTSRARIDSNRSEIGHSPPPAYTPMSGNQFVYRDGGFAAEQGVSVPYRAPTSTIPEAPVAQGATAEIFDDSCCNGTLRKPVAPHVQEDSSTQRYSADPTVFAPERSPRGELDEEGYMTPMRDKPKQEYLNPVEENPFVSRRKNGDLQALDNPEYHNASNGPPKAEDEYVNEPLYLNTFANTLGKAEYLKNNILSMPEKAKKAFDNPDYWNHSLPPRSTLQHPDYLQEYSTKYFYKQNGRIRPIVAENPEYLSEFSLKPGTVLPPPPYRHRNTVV
Chain of FYN (human) (P06241 whole entry, looked up): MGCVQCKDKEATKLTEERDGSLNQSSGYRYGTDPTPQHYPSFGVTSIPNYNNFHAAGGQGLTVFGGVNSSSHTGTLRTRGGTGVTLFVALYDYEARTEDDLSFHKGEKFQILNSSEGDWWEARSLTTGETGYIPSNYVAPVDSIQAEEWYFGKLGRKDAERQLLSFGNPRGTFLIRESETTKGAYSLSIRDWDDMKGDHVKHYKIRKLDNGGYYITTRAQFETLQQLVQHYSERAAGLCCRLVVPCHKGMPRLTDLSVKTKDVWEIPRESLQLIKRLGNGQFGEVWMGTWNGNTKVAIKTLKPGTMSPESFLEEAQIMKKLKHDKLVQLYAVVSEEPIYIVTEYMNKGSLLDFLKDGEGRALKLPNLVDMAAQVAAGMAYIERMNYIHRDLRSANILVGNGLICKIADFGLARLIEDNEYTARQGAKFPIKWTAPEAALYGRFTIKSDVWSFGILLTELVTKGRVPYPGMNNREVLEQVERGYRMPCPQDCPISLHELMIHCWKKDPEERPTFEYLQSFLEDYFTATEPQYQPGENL
Chain of BLK (human) (P51451 whole entry, looked up): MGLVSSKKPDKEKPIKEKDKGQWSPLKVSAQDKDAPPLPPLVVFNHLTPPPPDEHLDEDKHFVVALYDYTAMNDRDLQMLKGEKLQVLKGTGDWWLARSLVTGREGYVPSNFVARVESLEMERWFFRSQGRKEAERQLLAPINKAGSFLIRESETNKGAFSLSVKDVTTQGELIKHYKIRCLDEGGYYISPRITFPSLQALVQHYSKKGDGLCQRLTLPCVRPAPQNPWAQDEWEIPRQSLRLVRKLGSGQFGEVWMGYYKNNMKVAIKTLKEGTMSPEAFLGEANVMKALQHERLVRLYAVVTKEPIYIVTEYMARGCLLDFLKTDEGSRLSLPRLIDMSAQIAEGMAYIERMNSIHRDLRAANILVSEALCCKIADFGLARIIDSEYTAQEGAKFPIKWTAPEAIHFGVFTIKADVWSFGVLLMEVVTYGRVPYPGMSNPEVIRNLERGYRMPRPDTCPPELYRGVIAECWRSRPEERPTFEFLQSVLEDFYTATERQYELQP
Chain of MAP3K10 (human) (Q02779 whole entry, looked up): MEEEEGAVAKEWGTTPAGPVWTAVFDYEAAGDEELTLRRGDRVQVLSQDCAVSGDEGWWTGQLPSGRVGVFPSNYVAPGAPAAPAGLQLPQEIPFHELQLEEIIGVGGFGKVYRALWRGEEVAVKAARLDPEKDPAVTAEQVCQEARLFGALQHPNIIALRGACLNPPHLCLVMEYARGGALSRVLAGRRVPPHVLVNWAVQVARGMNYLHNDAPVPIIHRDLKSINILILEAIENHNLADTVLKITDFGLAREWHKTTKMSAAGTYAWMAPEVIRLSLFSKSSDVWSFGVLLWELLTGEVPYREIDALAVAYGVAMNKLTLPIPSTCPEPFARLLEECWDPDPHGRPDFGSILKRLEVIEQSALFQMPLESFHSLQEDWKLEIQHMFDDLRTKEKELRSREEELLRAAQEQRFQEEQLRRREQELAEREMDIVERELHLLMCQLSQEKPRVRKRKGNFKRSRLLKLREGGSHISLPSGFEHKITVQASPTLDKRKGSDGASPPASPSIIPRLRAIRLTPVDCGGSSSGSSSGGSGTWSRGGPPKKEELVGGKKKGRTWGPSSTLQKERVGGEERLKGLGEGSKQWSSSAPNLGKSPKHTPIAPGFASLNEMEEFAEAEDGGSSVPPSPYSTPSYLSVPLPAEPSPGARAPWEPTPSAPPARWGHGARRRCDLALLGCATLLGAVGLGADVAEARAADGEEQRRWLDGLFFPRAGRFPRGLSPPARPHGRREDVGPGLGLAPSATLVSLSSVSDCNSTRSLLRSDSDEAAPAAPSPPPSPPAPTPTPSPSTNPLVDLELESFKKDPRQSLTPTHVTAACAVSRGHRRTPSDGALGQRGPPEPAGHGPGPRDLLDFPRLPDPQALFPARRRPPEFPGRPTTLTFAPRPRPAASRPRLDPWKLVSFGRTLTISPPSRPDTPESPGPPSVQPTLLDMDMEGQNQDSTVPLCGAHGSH
Chain of LTK (human) (P29376 whole entry, looked up): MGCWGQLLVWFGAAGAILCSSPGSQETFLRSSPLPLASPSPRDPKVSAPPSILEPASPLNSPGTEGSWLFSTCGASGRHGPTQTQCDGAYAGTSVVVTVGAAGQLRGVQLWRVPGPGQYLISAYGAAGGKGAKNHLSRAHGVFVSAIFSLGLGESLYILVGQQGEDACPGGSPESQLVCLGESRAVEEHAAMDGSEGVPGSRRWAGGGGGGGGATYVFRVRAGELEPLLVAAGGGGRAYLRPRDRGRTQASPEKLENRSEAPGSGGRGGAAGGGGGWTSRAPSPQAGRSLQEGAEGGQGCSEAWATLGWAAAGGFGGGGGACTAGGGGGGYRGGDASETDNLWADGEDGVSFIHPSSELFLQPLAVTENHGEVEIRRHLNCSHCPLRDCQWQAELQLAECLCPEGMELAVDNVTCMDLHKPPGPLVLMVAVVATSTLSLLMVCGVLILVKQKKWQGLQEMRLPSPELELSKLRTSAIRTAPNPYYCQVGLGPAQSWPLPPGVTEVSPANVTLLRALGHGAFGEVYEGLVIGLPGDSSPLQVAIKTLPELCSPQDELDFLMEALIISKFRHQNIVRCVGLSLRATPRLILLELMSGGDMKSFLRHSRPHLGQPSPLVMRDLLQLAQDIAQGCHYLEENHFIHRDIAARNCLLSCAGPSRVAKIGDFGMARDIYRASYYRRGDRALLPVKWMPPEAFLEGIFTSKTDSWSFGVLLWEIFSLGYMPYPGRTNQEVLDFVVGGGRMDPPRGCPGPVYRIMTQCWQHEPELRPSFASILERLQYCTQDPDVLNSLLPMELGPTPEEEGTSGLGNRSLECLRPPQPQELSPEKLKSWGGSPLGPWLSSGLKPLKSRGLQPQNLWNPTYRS
Chain of NEK6 (human) (Q9HC98 whole entry, looked up): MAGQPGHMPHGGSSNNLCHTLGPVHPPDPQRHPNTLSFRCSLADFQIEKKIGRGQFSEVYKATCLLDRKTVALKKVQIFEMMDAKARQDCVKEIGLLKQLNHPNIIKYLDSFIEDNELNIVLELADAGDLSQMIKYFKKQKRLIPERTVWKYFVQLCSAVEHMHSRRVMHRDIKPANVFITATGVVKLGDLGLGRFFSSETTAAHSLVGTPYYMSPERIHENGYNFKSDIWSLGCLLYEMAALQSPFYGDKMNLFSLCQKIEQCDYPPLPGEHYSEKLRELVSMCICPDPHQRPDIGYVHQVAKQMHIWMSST

residual activity (EPHA1 (human)): 104%
residual activity (FYN (human)): 100%
residual activity (MAP3K10 (human)): 103%
residual activity (DAPK2 (human)): 106%
residual activity (PTK2 (human)): 91.5%
residual activity (NEK4 (human)): 95.5%
residual activity (WEE1 (human)): 100%
residual activity (DYRK2 (human)): 204%
residual activity (DYRK1B (human)): 90.5%
residual activity (SGK1 (human)): 99%
residual activity (ULK1 (human)): 98%
residual activity (PHKG2 (human)): 93.5%
residual activity (NEK6 (human)): 95.5%
residual activity (ERBB4 (human)): 93.5%
residual activity (PAK3 (human)): 93.5%
residual activity (BLK (human)): 81.5%
residual activity (TEC (human)): 81.5%
residual activity (LTK (human)): 102%
residual activity (CDK1 CCNA2 (human)): 92.5%
residual activity (NUAK2 (human)): 103%
residual activity (RET (human)): 98.5%
residual activity (PRKCI (human)): 99.5%
residual activity (MELK (human)): 79.5%
residual activity (RPS6KA6 KD1 KD2 (human)): 92%
residual activity (CDK5 CDK5R1 p35 (human)): 103%
residual activity (DSTYK (human)): 97.5%
residual activity (EPHB2 (human)): 95.5%
residual activity (JAK3 JH1 JH2 (human)): 95.5%
residual activity (SLK (human)): 108%
residual activity (BTK (human)): 103%
residual activity (MUSK (human)): 104%
residual activity (MAP3K9 (human)): 92.5%
residual activity (TGFBR2 (human)): 100%
residual activity (EPHA7 (human)): 91.5%
Structure (SMILES): CC[C@H](C)n1cc(C)c2c(C(=O)NCc3c(C)cc(C)[nH]c3=O)cc(-c3ccc(N4CCNCC4)nc3)cc21
